PMC9506414, “Novel 2,6,9-Trisubstituted Purines as Potent CDK Inhibitors Alleviating Trastuzumab-Resistance of HER2-Positive Breast Cancers” (Pharmaceuticals, 2022)

Key:
[1] = test system: HCC1954 cells; experiment: Combination with trastuzumab, growth inhibition; type: cell-based, human; settings: 40 nM 30d with multiple doses of trastuzumab, 72 h
Procedure: (§1) Additionally, we examined a combination effect in both SK-Br3 and HCC1954 cells.
(§2) Breast-cancer cells in culture media (100 μL volume/well, 5000 SK-Br3 cells/well, 1000 HCC-1954 cells/well) were seeded in tissue culture-treated 96-well plates, and incubated at a cell incubator for 24 h. Serially diluted compounds (3-fold, 10 point from 10 mM, duplicated) were pre-plated and 500 nL of compound solutions were pin-transferred to the cells in the assay plates using pintool system (JANUS liquid handler, PerkinElmer, Waltham, MA, USA) and incubated at a cell incubator for 72 h. Cell-titer Glo^TM reagent (50 μL, Promega Corp., Madison, WI, USA) was added to each well, and the luminescence signal was read using an Envision^TM plate reader (PerkinElmer, Waltham, MA, USA). The titration curve fitting and IC50 values were generated using Prism 7.0 s/w (GraphPad, San Diego, CA, USA).

[2] = test system: SK-Br3 cells; experiment: Combination with trastuzumab, growth inhibition; type: cell-based, human; settings: 40 nM 30d with multiple doses of trastuzumab, 72 h
Procedure: as §1, §2

[3] = test system: PKAC-alpha; experiment: Kinome-wide inhibition profiling; type: biochemical, human; settings: 10 μM
Procedure: In vitro CDK12/cyclinK assays for all compounds and in vitro kinome-wide inhibition profiling of 30d at 10 μM were performed by a CRO company (Reaction Biology Corp., San Diego, CA, USA).

[4] = test system: CDK4-cyclinD1; parameters: method as in HMS LINCS database; settings: 10 μM, ref HMS LINCS database; cited from earlier work
[5] = test system: CDC2L5; parameters: method as in HMS LINCS database; settings: 10 μM, ref HMS LINCS database; cited from earlier work
[6] = test system: CDK3; parameters: method as in HMS LINCS database; settings: 10 μM, ref HMS LINCS database; cited from earlier work
[7] = test system: CDK7; parameters: method as in HMS LINCS database; settings: 10 μM, ref HMS LINCS database; cited from earlier work
[8] = test system: PFTAIRE2; parameters: method as in HMS LINCS database; settings: 10 μM, ref HMS LINCS database; cited from earlier work
[9] = target: T1, TLK2 (Homo sapiens, UniProt Q86UE8); parameters: method as in HMS LINCS database; settings: 10 μM, ref HMS LINCS database; cited from earlier work
T1 construct: purchased Reaction Biology Corp

[10] = target: T2, TLK1 (Homo sapiens, UniProt Q9UKI8); parameters: method as in HMS LINCS database; settings: 10 μM, ref HMS LINCS database; cited from earlier work
T2 construct: purchased Reaction Biology Corp

[11] = test system: ERK8; parameters: method as in HMS LINCS database; settings: 10 μM, ref HMS LINCS database; cited from earlier work
[12] = test system: PFPK5(P.falciparum); parameters: method as in HMS LINCS database; settings: 10 μM, ref HMS LINCS database; cited from earlier work
[13] = test system: CDKL5; parameters: method as in HMS LINCS database; settings: 10 μM, ref HMS LINCS database; cited from earlier work
[14] = test system: CDK5; parameters: method as in HMS LINCS database; settings: 10 μM, ref HMS LINCS database; cited from earlier work
[15] = test system: CDK4-cyclinD3; parameters: method as in HMS LINCS database; settings: 10 μM, ref HMS LINCS database; cited from earlier work
[16] = target: T3, ERK5 (Homo sapiens, UniProt Q13164); parameters: method as in HMS LINCS database; settings: 10 μM, ref HMS LINCS database; cited from earlier work
T3 construct: purchased Reaction Biology Corp

[17] = target: T4, GSK3a (Homo sapiens, UniProt P49840); parameters: method as in HMS LINCS database; settings: 10 μM, ref HMS LINCS database; cited from earlier work
T4 construct: purchased Reaction Biology Corp

[18] = target: T5, HIPK2 (Homo sapiens, UniProt Q9H2X6); parameters: method as in HMS LINCS database; settings: 10 μM, ref HMS LINCS database; cited from earlier work
T5 construct: purchased Reaction Biology Corp

[19] = target: T6, CLK2 (Homo sapiens, UniProt P49760); parameters: method as in HMS LINCS database; settings: 10 μM, ref HMS LINCS database; cited from earlier work
T6 construct: purchased Reaction Biology Corp

[20] = target: T7, HIPK3 (Homo sapiens, UniProt Q9H422); parameters: method as in HMS LINCS database; settings: 10 μM, ref HMS LINCS database; cited from earlier work
T7 construct: purchased Reaction Biology Corp

[21] = target: T8, CLK4 (Homo sapiens, UniProt Q9HAZ1); parameters: method as in HMS LINCS database; settings: 10 μM, ref HMS LINCS database; cited from earlier work
T8 construct: purchased Reaction Biology Corp

[22] = target: T9, DYRK1A (Homo sapiens, UniProt Q13627); parameters: method as in HMS LINCS database; settings: 10 μM, ref HMS LINCS database; cited from earlier work
T9 construct: purchased Reaction Biology Corp

[23] = target: T10, DYRK1B (Homo sapiens, UniProt Q9Y463); parameters: method as in HMS LINCS database; settings: 10 μM, ref HMS LINCS database; cited from earlier work
T10 construct: purchased Reaction Biology Corp

[24] = test system: CDKL1; parameters: method as in HMS LINCS database; settings: 10 μM, ref HMS LINCS database; cited from earlier work

T4 sequence (P49840 whole entry): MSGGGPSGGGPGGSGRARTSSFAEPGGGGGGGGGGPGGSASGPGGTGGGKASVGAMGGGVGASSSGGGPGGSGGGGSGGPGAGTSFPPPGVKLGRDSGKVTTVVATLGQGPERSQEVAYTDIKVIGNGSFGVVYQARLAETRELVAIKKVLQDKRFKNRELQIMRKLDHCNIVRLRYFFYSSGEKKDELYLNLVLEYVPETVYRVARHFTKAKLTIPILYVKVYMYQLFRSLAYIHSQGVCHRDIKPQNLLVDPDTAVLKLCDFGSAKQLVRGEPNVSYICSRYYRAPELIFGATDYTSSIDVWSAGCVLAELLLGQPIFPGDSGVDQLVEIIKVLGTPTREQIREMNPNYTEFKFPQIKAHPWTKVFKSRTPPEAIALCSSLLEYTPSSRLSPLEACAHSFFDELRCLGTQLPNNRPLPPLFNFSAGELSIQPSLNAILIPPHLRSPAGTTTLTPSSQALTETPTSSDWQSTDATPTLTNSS
T3 sequence (Q13164 whole entry): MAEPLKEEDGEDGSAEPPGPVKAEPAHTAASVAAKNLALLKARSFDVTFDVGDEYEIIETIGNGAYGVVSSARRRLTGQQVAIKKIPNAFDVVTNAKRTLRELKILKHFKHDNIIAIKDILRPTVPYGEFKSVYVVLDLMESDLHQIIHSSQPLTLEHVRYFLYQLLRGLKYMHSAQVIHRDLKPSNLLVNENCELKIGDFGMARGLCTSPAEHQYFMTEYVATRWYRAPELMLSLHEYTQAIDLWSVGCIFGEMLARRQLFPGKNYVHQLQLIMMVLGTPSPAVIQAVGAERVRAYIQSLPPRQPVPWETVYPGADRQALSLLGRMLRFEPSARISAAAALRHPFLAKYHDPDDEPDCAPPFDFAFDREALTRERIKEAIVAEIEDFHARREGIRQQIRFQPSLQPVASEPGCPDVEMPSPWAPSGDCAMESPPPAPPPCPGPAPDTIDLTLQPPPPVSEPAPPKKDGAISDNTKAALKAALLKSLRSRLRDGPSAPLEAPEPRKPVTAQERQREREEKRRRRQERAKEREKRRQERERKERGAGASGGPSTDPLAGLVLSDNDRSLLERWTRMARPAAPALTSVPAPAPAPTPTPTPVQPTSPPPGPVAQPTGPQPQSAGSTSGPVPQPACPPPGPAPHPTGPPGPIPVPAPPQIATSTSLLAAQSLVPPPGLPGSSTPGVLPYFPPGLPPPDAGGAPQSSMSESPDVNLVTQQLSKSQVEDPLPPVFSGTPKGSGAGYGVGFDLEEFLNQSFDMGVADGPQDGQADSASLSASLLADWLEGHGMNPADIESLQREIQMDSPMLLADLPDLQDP
T8 sequence (Q9HAZ1 whole entry): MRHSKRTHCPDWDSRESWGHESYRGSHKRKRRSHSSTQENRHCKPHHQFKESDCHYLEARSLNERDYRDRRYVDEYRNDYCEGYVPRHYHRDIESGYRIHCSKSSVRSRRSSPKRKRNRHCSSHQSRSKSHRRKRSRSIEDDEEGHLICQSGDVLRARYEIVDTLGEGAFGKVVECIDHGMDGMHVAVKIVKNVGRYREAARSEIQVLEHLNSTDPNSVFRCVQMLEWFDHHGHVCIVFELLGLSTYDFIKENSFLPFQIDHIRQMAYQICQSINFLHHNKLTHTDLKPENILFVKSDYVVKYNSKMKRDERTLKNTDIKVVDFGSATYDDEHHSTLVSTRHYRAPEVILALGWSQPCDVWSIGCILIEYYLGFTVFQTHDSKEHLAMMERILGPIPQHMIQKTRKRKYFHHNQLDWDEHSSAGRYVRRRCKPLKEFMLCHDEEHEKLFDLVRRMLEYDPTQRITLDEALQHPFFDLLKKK
T2 sequence (Q9UKI8 whole entry): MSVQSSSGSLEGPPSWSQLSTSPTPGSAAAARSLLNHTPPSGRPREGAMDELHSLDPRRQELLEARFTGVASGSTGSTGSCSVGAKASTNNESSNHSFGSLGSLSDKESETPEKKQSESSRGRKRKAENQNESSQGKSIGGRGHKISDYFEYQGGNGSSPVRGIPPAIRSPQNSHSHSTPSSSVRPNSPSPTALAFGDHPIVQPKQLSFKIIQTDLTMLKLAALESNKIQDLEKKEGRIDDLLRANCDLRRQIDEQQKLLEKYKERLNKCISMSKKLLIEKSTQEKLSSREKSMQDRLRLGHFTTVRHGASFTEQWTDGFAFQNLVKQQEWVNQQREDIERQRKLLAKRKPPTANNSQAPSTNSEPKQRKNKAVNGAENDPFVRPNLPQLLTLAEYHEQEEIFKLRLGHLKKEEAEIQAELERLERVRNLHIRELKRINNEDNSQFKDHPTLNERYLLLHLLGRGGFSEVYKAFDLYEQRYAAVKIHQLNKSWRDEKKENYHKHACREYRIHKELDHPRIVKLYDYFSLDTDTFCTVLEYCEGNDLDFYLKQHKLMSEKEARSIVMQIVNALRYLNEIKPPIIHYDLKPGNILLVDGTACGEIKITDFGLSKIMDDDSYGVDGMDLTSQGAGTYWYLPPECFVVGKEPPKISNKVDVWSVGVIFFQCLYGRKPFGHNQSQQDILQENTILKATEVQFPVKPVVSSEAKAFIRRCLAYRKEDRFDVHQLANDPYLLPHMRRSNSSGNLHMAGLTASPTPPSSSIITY
T5 sequence (Q9H2X6 whole entry): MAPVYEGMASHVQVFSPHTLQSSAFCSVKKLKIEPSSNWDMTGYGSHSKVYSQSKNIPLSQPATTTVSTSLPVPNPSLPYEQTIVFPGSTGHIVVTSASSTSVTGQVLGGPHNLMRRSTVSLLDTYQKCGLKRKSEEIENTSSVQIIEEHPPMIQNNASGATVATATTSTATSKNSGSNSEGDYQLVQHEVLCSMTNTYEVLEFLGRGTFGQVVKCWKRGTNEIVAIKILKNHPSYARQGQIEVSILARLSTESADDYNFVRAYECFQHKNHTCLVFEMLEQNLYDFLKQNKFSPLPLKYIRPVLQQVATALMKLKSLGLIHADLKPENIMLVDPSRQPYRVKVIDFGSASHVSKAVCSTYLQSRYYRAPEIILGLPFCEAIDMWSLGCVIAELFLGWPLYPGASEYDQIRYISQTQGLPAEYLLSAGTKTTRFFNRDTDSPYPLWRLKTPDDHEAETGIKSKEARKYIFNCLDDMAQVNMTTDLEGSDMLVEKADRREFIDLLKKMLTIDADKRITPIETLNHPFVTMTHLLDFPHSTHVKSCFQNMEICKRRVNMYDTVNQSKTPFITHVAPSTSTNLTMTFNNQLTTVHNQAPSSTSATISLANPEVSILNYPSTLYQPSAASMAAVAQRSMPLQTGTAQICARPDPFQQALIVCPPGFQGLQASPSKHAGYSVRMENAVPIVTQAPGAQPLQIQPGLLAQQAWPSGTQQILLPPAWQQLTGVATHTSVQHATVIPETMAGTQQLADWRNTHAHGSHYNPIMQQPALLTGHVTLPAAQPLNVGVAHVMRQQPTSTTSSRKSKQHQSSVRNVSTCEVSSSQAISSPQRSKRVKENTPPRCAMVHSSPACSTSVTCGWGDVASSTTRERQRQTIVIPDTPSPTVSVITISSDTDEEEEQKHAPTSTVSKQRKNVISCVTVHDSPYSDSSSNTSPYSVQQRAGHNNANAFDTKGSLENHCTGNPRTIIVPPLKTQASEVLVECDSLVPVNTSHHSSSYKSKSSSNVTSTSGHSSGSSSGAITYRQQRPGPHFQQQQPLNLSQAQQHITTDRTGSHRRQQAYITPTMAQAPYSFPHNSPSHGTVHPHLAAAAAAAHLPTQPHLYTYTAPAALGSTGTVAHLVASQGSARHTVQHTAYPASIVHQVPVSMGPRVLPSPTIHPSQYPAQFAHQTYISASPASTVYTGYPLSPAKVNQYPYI
T7 sequence (Q9H422 whole entry): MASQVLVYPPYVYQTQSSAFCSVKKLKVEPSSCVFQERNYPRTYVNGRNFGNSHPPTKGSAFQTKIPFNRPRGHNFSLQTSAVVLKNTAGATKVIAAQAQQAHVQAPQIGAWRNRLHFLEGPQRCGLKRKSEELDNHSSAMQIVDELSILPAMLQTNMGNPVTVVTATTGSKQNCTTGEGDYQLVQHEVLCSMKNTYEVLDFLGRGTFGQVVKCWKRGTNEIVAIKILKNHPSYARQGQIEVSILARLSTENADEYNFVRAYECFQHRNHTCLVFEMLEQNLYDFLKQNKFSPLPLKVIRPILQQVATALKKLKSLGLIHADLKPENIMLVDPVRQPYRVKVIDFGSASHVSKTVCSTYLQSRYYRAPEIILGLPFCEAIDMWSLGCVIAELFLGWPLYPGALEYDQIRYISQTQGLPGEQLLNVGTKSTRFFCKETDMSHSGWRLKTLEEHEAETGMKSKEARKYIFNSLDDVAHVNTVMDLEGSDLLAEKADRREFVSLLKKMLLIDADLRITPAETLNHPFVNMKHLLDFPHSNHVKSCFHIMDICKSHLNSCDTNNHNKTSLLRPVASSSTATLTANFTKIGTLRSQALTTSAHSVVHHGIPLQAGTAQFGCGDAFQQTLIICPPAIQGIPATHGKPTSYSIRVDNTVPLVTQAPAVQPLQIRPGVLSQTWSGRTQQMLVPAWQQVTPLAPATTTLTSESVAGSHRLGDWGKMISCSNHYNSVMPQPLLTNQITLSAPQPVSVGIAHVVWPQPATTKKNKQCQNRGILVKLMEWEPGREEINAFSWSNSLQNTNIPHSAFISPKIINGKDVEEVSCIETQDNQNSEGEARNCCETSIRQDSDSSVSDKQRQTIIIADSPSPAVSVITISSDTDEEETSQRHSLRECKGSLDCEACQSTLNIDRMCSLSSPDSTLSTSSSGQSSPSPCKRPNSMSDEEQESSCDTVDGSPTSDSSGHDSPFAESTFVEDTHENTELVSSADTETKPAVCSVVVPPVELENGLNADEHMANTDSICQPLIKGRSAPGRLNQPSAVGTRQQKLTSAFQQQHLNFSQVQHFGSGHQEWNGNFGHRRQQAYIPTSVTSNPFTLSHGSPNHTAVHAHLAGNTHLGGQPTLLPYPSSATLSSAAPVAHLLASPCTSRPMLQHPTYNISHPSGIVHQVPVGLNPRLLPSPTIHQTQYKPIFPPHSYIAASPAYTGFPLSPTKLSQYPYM

With `CCn1cnc2c(NCc3ccc(-c4ccccn4)nc3)nc(-c3ccc(N)nc3)nc21` [Compound 30d, N-([2,2′-Bipyridin]-5-ylmethyl)-2-(6-aminopyridin-3-yl)-9-ethyl-9H-purin-6-amine] the “combination effect with trastuzumab in growth inhibition” value [1] was “modest level of synergism”, the “combination effect with trastuzumab in growth inhibition” value [2] was “modest level of synergism” and the “% remaining activity” value [3] was 62.4%.
For `CCc1cnn2c(NCc3ccc[n+]([O-])c3)cc(N3CCCC[C@H]3CCO)nc12` [Dinaciclib], the “% control” value [4] is given as 0.1%, the “% control” value [5] is given as 0.3% and the “% control” value [6] is given as 0.3%. The “% control” value [7] was 0.4%, the “% control” value [8] was 0.4% and the “% control” value [9] was 0.5%. The “% control” value [10] was 0.9%, the “% control” value [11] was 1.0% and the “% control” value [12] was 1.2%. The “% control” value [13] was 1.6%, the “% control” value [14] was 1.8% and the “% control” value [15] was 2.0%. For the same molecule, the “% control” value [16] was 2.9%, the “% control” value [17] was 3.0% and the “% control” value [18] was 3.6%. For the same molecule, the “% control” value [19] was 4.2%, the “% control” value [20] was 4.4% and the “% control” value [21] was 5.1%. For the same molecule, the “% control” value [22] was 6.0%, the “% control” value [23] was 6.0% and the “% control” value [24] was 9.1%.
